Assay results reported in patent US8765733B2, “Amine substituted methanesulfonamide derivatives as vanilloid receptor ligands” (Gruenenthal GmbH, priority 2011, dated 2014).

Target: vanilloid receptor 1 (VR1/TRPV1 receptor) (Homo sapiens, UniProt Q8NER1)
Assay: FLIPR functional assay (Ca2+ influx, capsaicin) on the vanilloid receptor 1
Assay type: cell-based
Details: capsaicin (Cap) stimulus, compound at 5 μM

Row | Compound | inhibition at 5 µM (read-out: inhibition (as a percentage) Cap, (human being)) | inhibition (as a percentage) Cap, (human being)
1 | CC1CCN(c2nc(C(F)(F)F)ccc2CNC(=O)C(C)c2ccc(F)c(CNS(C)(=O)=O)c2)CC1 (centres unmarked) [Example 66, 2-(4-fluoro-3-(methylsulfonamidomethyl)phenyl)-N-((2-(4-methylpiperidin-1-yl)-6-(trifluoromethyl)pyridin-3-yl)methyl)propanamide] | 58% | 
2 | N-(2-fluoro-5-(3-((2-(4-methylpiperidin-1-yl)-6-(trifluoromethyl)pyridin-3-yl)methyl)ureido)benzyl)methanesulfonamide [Example 65] |  | 12%@5 μM
